Results published in patent publication US5574070A, “Substituted guanidines having high binding to the sigma receptor and the use thereof” (priority 1993, dated 1996).
Where a name gives a salt, the structure may show the parent alone. Read-outs that look alike come from different tables or passages of the source.

Tests used:
[1] = molecular target: sigma receptor; assay: [3H]DTG displacement radioligand binding assay, guinea pig brain membranes; details: for displacement of [3H]DTG: 10 uM
[2] = system: anxiety behavior of mice; assay: black:white test box (light/dark exploration) of mice; details: for anxiolytic activity: 1 mg/kg
[3] = list of especially preferred compounds, read-out: IC50 (high binding to the sigma receptor)
[4] = Example 25, guinea pig brain membrane homogenates, read-out: IC50 binding values
[5] = read-out: IC50 vs [3H]DTG, Table I, guinea pig brain membranes

Row | Molecule | IC50 [1, 3] [nM] | latency to entering the dark compartment ([2]; oral) | numbers of line crossings and/or rears in the light compartment (vs dark) ([2]; oral) | sedation: total numbers of rears and line crossings ([2]; oral) | latency to entering the dark compartment ([2]; s.c.) | numbers of line crossings and/or rears in the light compartment (vs dark) ([2]; s.c.) | sedation: total numbers of rears and line crossings ([2]; s.c.) | IC50 [1, 4] [nM] | displacement of [3H]DTG [1] | also measured
1 | N=C(Nc1ccccc1I)N[C@@H]1C[C@@H]2CC[C@H]1C2 (relative stereo) [N-((±)-endo-2-norbornyl)-N'-(2-iodophenyl)guanidine] | 5 | increase in the latency to entering the dark compartment | increase in the number of rears in the light compartment | did not decrease significantly, showing that the drug was not sedative | dose-dependent increase in the latency to entering the dark compartment | significant dose-dependent increase in the number of rears in the light compartment | did not decrease significantly, showing that the drug was not sedative | – | – | proportion of time in light area / percentage of time in black compartment ([2]; oral): decrease in the percentage time spent in the black compartment
2 | Cc1ccccc1NC(=N)N[C@H]1C[C@@H]2CC[C@H]1C2 (relative stereo) [N-(exo-2-norbornyl)-N'-(2-methylphenyl)guanidine] | 7 | increase in the latency to entering the dark compartment | increase in the number of rears in the light compartment | did not decrease significantly, showing that the drug was not sedative | increase in the latency to entering the dark compartment when administered at 0.1 mg/kg | increase in the number of rears in the light compartment | did not decrease significantly, showing that the drug was not sedative | – | – | proportion of time in light area / percentage of time in black compartment ([2]; oral): decrease in the percentage time spent in the black compartment
3 | N=C(NC1CCCCC1)NC12CC3CC(CC(C3)C1)C2 [AdChG, N, Adamantan-1-yl-N'-cyclohexylguanidine HCl] | 12.5 | – | – | – | dose-dependent increase in the latency to entering the dark compartment | increase in the number of rears in the light compartment | did not change significantly, showing that the drug was not sedative | 12.5 ± 2.2 | – | in vitro [3H]DTG displacement activity [1]: found to possess the aforesaid in vitro [^3 H]DTG displacement activity; IC50 [1, 5]: 13 ± 2 nM
4 | Cl.N=C(Nc1ccccc1I)NC12CC3CC(CC(C3)C1)C2 [AdIpG, N-(Adamantan-1-yl)-N'-(2-iodophenyl)guanidine HCl] | 6.2 | increase in the latency to entering the dark compartment | increase in the numbers of line crossings and rears in the light compartment | did not decrease significantly | increased in a dose-dependent manner | increased at the expense of those in the dark compartment | did not decrease significantly showing that the drug was not sedative at this level | 6.2 ± 0.7 | – | in vitro [3H]DTG displacement activity [1]: found to possess the aforesaid in vitro [^3 H]DTG displacement activity; IC50 [1, 5]: 5 ± 1 nM; anxiolytic activity ([2]; oral): have anxiolytic activity when orally administered; proportion of time spent in the lighted area ([2]; s.c.): increased, in a dose-dependent manner, the proportion of time the mice spent in the larger, lighted area
5 | N=C(NC12CC3CC(CC(C3)C1)C2)NC12CC3CC(CC(C3)C1)C2 [DAG, N,N'-di-(adamantan-1-yl)guanidine] | 16.5 | increase in the latency to entering the dark compartment | increase in the numbers of line crossings and rears in the light compartment | did not decrease significantly | – | increased at the expense of those in the dark compartment | did not decrease significantly showing that the drug was not sedative at this level | 11.8 ± 3.4 | – | in vitro [3H]DTG displacement activity [1]: found to possess the aforesaid in vitro [^3 H]DTG displacement activity; IC50 [1, 5]: 17 ± 3 nM; anxiolytic activity ([2]; oral): have anxiolytic activity when orally administered; proportion of time spent in the lighted area ([2]; s.c.): tended to increase the proportion of time the mice spent in the larger, lighted area
6 | CC12CC3CC(C)(C1)CC(/N=C(\N)Nc1ccccc1/C=C/c1ccccc1)(C3)C2 [Example F-114-B, N-(3,5-dimethyladamantan-1-yl)-N'-[(E)-2-phenylethenyl]phenylguanidine] | – | – | – | – | – | – | did not decrease significantly showing that the drug was not sedative at this level | – | – | –
7 | N=C(Nc1ccccc1I)Nc1ccccc1C=Cc1ccccc1 [N-(2-styrylphenyl)-N'-(2-iodophenyl)guanidine] | – | – | – | – | – | – | – | – | – | latency to entering the dark compartment ([2]; i.p.): decreased the latency to entering the dark compartment; numbers of line crossings and/or rears in the light compartment ([2]; i.p.): did not affect the numbers of line crossings or rears in the light compartment; proportion of time in light area / percentage of time in black compartment ([2]; i.p.): No significant change in the percentage time in the black compartment
8 | Cc1ccccc1NC(=N)NC1CCCCC1 [N-Cyclohexyl-N'-(2-methylphenyl)guanidine] | 13 | slight increase in the latency to entering the dark compartment | increase in the total numbers of rears in the light compartment | did not change significantly, showing that the compound was not sedative | increase in the latency to entering the dark compartment | increased in a dose-dependent manner at the expense of those in the dark compartment | did not decrease significantly, showing that the drug was not sedative | 13 ± 1 | – | in vitro [3H]DTG displacement activity [1]: found to possess the aforesaid in vitro [^3 H]DTG displacement activity; IC50 [1, 5]: 17 ± 5 nM; proportion of time in light area / percentage of time in black compartment ([2]; oral): significant decrease in the percentage of time in the black compartment; proportion of time spent in the lighted area ([2]; s.c.): increases significantly the proportion of time the mice spent in the larger, lighted area
9 | CNC(=N)N [methyl-guanidine, reference compound] | – | – | – | – | – | – | – | – | no significant displacement | –
10 | C=CCN1CC[C@]23c4c5ccc(O)c4O[C@H]2C(=O)CC[C@@]3(O)[C@H]1C5 [naloxone, reference compound] | – | – | – | – | – | – | – | – | no significant displacement | –
11 | O=C1CC2(CCCC2)CC(=O)N1CCCCN1CCN(c2nsc3ccccc23)CC1 [tiospirone, reference compound] | – | – | – | – | – | – | – | 233 ± 52 | – | –
12 | beta-endorphin [reference compound] | – | – | – | – | – | – | – | – | no significant displacement | –
13 | dynorphin A [reference compound] | – | – | – | – | – | – | – | – | no significant displacement | –
14 | picrotoxin [reference compound] | – | – | – | – | – | – | – | – | no significant displacement | –
